Results on nine compounds are retold here after PMC7409020, “Tumor-Targeting Peptides: The Functional Screen of Glioblastoma Homing Peptides to the Target Protein FABP3 (MDGI)” (Cancers, 2020).

Broadly, the Kd is the free concentration of one partner at which half of the binding sites on the other are occupied at equilibrium, for simple one-to-one binding.

Square brackets hold non-standard residues; d marks the D form. Peptide text beside a SMILES is read from it.

T1 sequence (P05413 whole entry): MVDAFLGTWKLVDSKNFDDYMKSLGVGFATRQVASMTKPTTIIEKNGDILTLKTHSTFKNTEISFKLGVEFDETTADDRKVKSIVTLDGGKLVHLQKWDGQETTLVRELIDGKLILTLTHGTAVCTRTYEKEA

The experiment has as its target T1, recombinant FABP3 (Homo sapiens, UniProt P05413).
T1 construct: made in house; host or cells: Escherichia coli BL21 (DE3)
Nature of the experiment: Microscale thermophoresis (MST) binding to NT-650-NHS-labeled FABP3. The following applies: 20 nM labeled FABP3; peptide 500 µM to 0.0153 µM, two-fold dilutions; PBS-tween 20 pH 7.4; 25 °C; 40% MST power; 1:1 fit; mean ± SD of three independent experiments. How it is done: For the binding affinity measurements between the recombinant FABP3 and the A-CooP, its variants, and the control peptide, we used the microscale thermophoresis. […] For these analyses, FABP3 was labeled with an NT-650-NHS fluorescence. Two-fold serially diluted peptides ranging from 500 µM to 0.0153 µM were titrated against a constant FABP3 concentration (20 nM). The binding events were generated following changes in fluorescence (ΔFnorm) against peptide concentrations. Subsequently, the equilibrium dissociation constant (KD) was calculated using a 1:1 fit model from the law of mass action. The MST binding affinities (KD values) are represented in a bar graph (Figure 4B). The smallest KD value equals the best affinity, and the highest value is the lowest affinity. […] The changes in fluorescence (ΔFnorm) were normalized to the bound fraction (Figure 4C). The data points towards 1 were considered bound fractions, while data points less than 1 represented the unbound fractions.
FABP3 was labeled with a second-generation red amine-reactive NT-650-NHS fluorescent dye using the Nanotemper labeling kit (MO-L011; Nanotemper, https://nanotempertech.com/). The protein/dye concentration ratio and volume ratio were 1:3 and 1:1, respectively, in accordance with the manufacturer’s instructions. The actual concentration and degree of labeling (DOL) were determined using the extinction coefficient Ɛ280 = 18450 M^−1 cm^−1 for FABP3 and Ɛ650 =195000 M^−1 cm^−1 for the NT650 dye. Using the correction factor of 0.04 at 280 nm, the DOL for all labeling reactions was calculated according to manufacturer’s instructions. Binding experiments were carried out in a PBS-tween 20 buffer (10 mM Na2HPO4, 140 mM NaCl, 2.7 mM KCl, 0.05% tween 20, pH 7.4). The binding assay was performed with a fixed concentration (20 nM) of the fluorescently labeled FABP3 (target) and two-fold serially diluted decreasing concentrations (500 µM to 0.0153 µM) of the unlabeled A-CooP variants (ligand). The reaction mixture of 16 serial diluents of A-CooP or its analogues and FABP3 were filled into the capillary tubes (Nanotemper, MO-K022) and loaded in the Monolith NT 115 instrument accordingly. All experiments were carried out at 25 °C, 40% MST power (medium), and 60% LED power. Binding assay and measurements were performed in triplicates for each experimental setup.
(In general: In MST a laser heats a spot of the sample, and binding alters the fluorescence response.)
As to `CC(C)C[C@H](NC(=O)CNC(=O)[C@H](CO)NC(=O)[C@H](CC(C)C)NC(=O)CNC(=O)[C@H](CS)NC(=O)[C@H](C)N)C(=O)NCC(=O)N[C@H](C(=O)N[C@@H](C)C(N)=O)C(C)C` [A-CooP] (H-ACGLSGLGVA-NH2), the Kd was found to be 2180 ± 1150 nM. In the case of `CC(C)C[C@H](NC(=O)CNC(=O)[C@H](CO)NC(=O)[C@H](C)NC(=O)CNC(=O)[C@H](CS)NC(=O)[C@H](C)N)C(=O)NCC(=O)N[C@H](C(=O)N[C@@H](C)C(N)=O)C(C)C` [A-[Ala^3]CooP] (H-ACGASGLGVA-NH2), the Kd stood at 250 ± 140 nM.

For `CC(C)C[C@H](NC(=O)CNC(=O)[C@H](CS)NC(=O)[C@H](C)N)C(=O)N[C@@H](CO)C(=O)NCC(=O)N[C@@H](C)C(=O)NCC(=O)N[C@H](C(=O)N[C@@H](C)C(N)=O)C(C)C` [A-[Ala^6]CooP] (H-ACGLSGAGVA-NH2), the Kd was 190 ± 30 nM. With `CC(C)C[C@H](NC(=O)CNC(=O)[C@H](CO)NC(=O)[C@H](CC(C)C)NC(=O)[C@H](C)NC(=O)[C@H](CS)NC(=O)[C@H](C)N)C(=O)NCC(=O)N[C@H](C(=O)N[C@@H](C)C(N)=O)C(C)C` [A-[Ala^2]CooP] (H-ACALSGLGVA-NH2), the Kd stood at 90 ± 70 nM. On to `CC(C)C[C@H](NC(=O)CNC(=O)[C@H](CO)NC(=O)[C@H](CC(C)C)NC(=O)CNC(=O)[C@H](CS)NC(=O)[C@H](C)NC(=O)[C@@H](N)CCCCN)C(=O)NCC(=O)N[C@H](C(=O)N[C@@H](C)C(N)=O)C(C)C` [KA-CooP] (H-KACGLSGLGVA-NH2), for which the Kd came out at 630 ± 130 nM. Take `CC(C)C[C@H](NC(=O)CNC(=O)[C@H](CO)NC(=O)[C@H](CC(C)C)NC(=O)CNC(=O)[C@H](CS)NC(=O)[C@H](C)N)C(=O)N[C@@H](C)C(=O)N[C@H](C(=O)N[C@@H](C)C(N)=O)C(C)C` [A-[Ala^7]CooP] (H-ACGLSGLAVA-NH2): the Kd was 133000 ± 75000 nM. Take `CC(C)C[C@H](NC(=O)CNC(=O)[C@H](CO)NC(=O)[C@H](CC(C)C)NC(=O)CNC(=O)[C@H](CS)NC(=O)[C@H](C)N)C(=O)NCC(=O)N[C@@H](C)C(=O)N[C@@H](C)C(N)=O` [A-[Ala^8]CooP] (H-ACGLSGLGAA-NH2): the Kd amounted to 120 ± 50 nM.

Take `CC(C)C[C@H](NC(=O)CNC(=O)[C@H](CO)NC(=O)[C@H](CC(C)C)NC(=O)CNC(=O)[C@H](CS)NC(=O)[C@H](C)N)C(=O)NCC(=O)N[C@H](C(=O)N[C@@H](C)C(=O)N[C@@H](CCCCN)C(N)=O)C(C)C` [A-CooP-K] (H-ACGLSGLGVAK-NH2): the Kd came out at 70 ± 10 nM. Next, `CC(C)C[C@@H](NC(=O)CNC(=O)[C@H](NC(=O)[C@@H](C)N)C(C)C)C(=O)NCC(=O)N[C@H](CO)C(=O)N[C@H](CC(C)C)C(=O)NCC(=O)N[C@H](CS)C(=O)N[C@H](C)C(N)=O` [RI-A-CooP] (H-[dA][dV]G[dL]G[dS][dL]G[dC][dA]-NH2): 24000 ± 13000 nM.
